The results in this text go back to ChEMBL document CHEMBL1128041, “Thiophene derivatives as extremely high affinity P3 ligands for the hydroxyethylpiperazine class of HIV-1 protease inhibitors” (Bioorg Med Chem Lett, 1995).

What is called solubility is the concentration that dissolves in the medium under given conditions. A lower solubility goes with a poorly soluble substance. As usually defined, the Cmax is the peak of the concentration-time curve. As usually defined, the IC50 is the concentration that gives 50% inhibition.

SMILES strings stand for the structures. ≈ marks a conversion by molar mass, not a printed value. Bounds are passed on as bounds.

Data set [1] is described as follows: Solubility at pH 5.2. Format: physicochemical. The conditions noted are these: buffer.
The nature of data set [2]: Solubility at pH 7.4. Format: physicochemical. The settings on record: buffer.
The test system of data set [3] is MT4. Put plainly: Compound was tested in vitro for antiviral activity against MT-4 human lymphoid cells infected with the HIV IIIb isolate. The settings on record: read-out: CIC95. Format: functional.
A short description of data set [4]: Maximal plasma concentration was determined. In kind it is ADME, organism-based. The settings on record: rat.
Data set [5] has as its system MT4. Put plainly: Compound was tested in vitro for antiviral activity against MT-4 human lymphoid cells infected with the HIV IIIb isolate; value ranges from 25-50. In kind it is functional. The settings on record: read-out: CIC95.
Data set [6] has as its target Human immunodeficiency virus type 1 protease (Human immunodeficiency virus 1, UniProt Q72874). The experiment in a line: Inhibition of HIV-1 Protease.

`CC(C)[C@@H]1[C@H](OC(=O)N[C@@H](Cc2ccccc2)[C@H](O)CN2CCN(Cc3cc(Br)cs3)C[C@H]2C(=O)NC(C)(C)C)CCS1(=O)=O`: the solubility in data set [1] is 37.2 µg/mL (≈ 51.1 µM); in data set [2] it was less than 0.08 µg/mL. In the data set with MT4 [3], the IC95 was 25 nM.
Turning to `CC(C)[C@@H]1[C@H](OC(=O)N[C@@H](Cc2ccccc2)[C@H](O)CN2CCN(Cc3cc4ccccc4s3)C[C@H]2C(=O)NC(C)(C)C)CCS1(=O)=O`, the IC95 in the data set with MT4 [3] was found to be 100 nM.
`CC(C)[C@@H]1[C@H](OC(=O)N[C@@H](Cc2ccccc2)[C@H](O)CN2CCN(Cc3cc4ccsc4s3)C[C@H]2C(=O)NC(C)(C)C)CCS1(=O)=O`: the solubility in data set [1] is 11.1 µg/mL (≈ 15.7 µM); in data set [2] it was 0.1 µg/mL (≈ 0.142 µM). Moreover, the IC95 in the data set on MT4 [3] is 12 nM.
Take `CC(C)[C@@H]1[C@H](OC(=O)N[C@@H](Cc2ccccc2)[C@H](O)CN2CCN(Cc3ccc(-c4cccs4)s3)C[C@H]2C(=O)NC(C)(C)C)CCS1(=O)=O`: in the data set with MT4 [3], the IC95 came out at 50 nM.
For `CCc1ccc(CCN2CCN(C[C@@H](O)[C@H](Cc3ccccc3)NC(=O)O[C@@H]3CCS(=O)(=O)[C@@H]3C(C)C)[C@H](C(=O)NC(C)(C)C)C2)s1`, in the data set with MT4 [3], the IC95 amounted to 50 nM.
Regarding `CC(C)[C@@H]1[C@H](OC(=O)N[C@@H](Cc2ccccc2)[C@H](O)CN2CCN(CCc3cccs3)C[C@H]2C(=O)NC(C)(C)C)CCS1(=O)=O`, the maximum concentration (Cmax) in data set [4] was greater than 1000 nM. The solubility was 1270 µg/mL (≈ 1920 µM) in data set [1] and 91.3 µg/mL (≈ 138 µM) in data set [2]. In the data set on MT4 [5], the IC95 was 25 nM.
Consider `CC(C)[C@@H]1[C@H](OC(=O)N[C@@H](Cc2ccccc2)[C@H](O)CN2CCN(Cc3cc4sccc4s3)C[C@H]2C(=O)NC(C)(C)C)CCS1(=O)=O`, for which the solubility is 6.9 µg/mL (≈ 9.79 µM) in data set [1] and less than 0.05 µg/mL in data set [2]. Moreover, the IC95 in the data set on MT4 [3] came out at 6 nM.
Take `CC(C)[C@@H]1[C@H](OC(=O)N[C@@H](Cc2ccccc2)[C@H](O)CN2CCN(Cc3ccc(Br)s3)C[C@H]2C(=O)NC(C)(C)C)CCS1(=O)=O`: the IC95 with MT4 [3] stood at 100 nM.
Turning to `Cc1cc(CN2CCN(C[C@@H](O)[C@H](Cc3ccccc3)NC(=O)O[C@@H]3CCS(=O)(=O)[C@@H]3C(C)C)[C@H](C(=O)NC(C)(C)C)C2)cc(Cl)n1`, the IC95 with MT4 [3] worked out at 25 nM.
`CC(C)[C@@H]1[C@H](OC(=O)N[C@@H](Cc2ccccc2)[C@H](O)CN2CCN(Cc3ccsc3)C[C@H]2C(=O)NC(C)(C)C)CCS1(=O)=O`: the IC95 in the data set on MT4 [3] was 50 nM.
As to `CC(C)[C@@H]1[C@H](OC(=O)N[C@@H](Cc2ccccc2)[C@H](O)CN2CCN(CCc3ccsc3)C[C@H]2C(=O)NC(C)(C)C)CCS1(=O)=O`, the IC95 in the data set with MT4 [3] amounted to 50 nM.
`CC(C)[C@@H]1[C@H](OC(=O)N[C@@H](Cc2ccccc2)[C@H](O)CN2CCN(Cc3cccs3)C[C@H]2C(=O)NC(C)(C)C)CCS1(=O)=O`: the IC95 in the data set on MT4 [5] was found to be 25 nM.
For the molecule `CC(C)[C@@H]1[C@H](OC(=O)N[C@@H](Cc2ccccc2)[C@H](O)CN2CCN(Cc3csc4ccc(Cl)cc34)C[C@H]2C(=O)NC(C)(C)C)CCS1(=O)=O`, the IC95 in the data set with MT4 [3] came to 100 nM. This molecule yielded an IC50 in data set [6] of 0.47 nM.
